Data from the supplement of paper PMC5412046.
Structures can show the parent of a compound that is named as a salt.

Tests used:
SB.mhdgc-1 = assay: AC50 for growth inhibition (viability) (log10 M); higher = less potent; conditions: SB.mhdgc-1 (hereditary c.1380delA CDH1 gastric cancer)
Outline: (§1)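 Compound dissolved in DMSO was transferred by pintool, 23 nL per 1536 well, onto 500 hereditary or sporadic patient-derived gastric cancer cells in 5 μL medium. The series spanned 11 threefold dilutions, the highest at a final 46 μM. At 48 h, a 30 min room-temperature incubation with CellTiter-Glo preceded luminescence measurement on a ViewLux. The log half-maximal activity concentration was fitted by a four-parameter model to DMSO-normalised viability, with only high-quality curve classes accepted.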

SB.msgc-1 = assay: as above; conditions: SB.msgc-1 (sporadic gastric cancer)
Outline: as §1

SMILES | AC50 for growth inhibition (log10 M) (SB.mhdgc-1) | AC50 for growth inhibition (log10 M) (SB.msgc-1)
Cc1n[nH]c2ccc(-c3cncc(OC[C@@H](N)Cc4ccccc4)c3)cc12 | -6.43 | -5.43
COc1ccc([C@@H]2CNC(=O)C2)cc1OC1CCCC1 [S-(+)-Rolipram] | -5.58 | -5.58
CC[C@@]1(O)C[C@H](O[C@H]2C[C@H](N(C)C)[C@H](O[C@H]3C[C@H](O)[C@H](O[C@H]4CCC(=O)[C@H](C)O4)[C@H](C)O3)[C@H](C)O2)c2c(cc3c(c2O)C(=O)c2c(O)cccc2C3=O)[C@H]1C(=O)OC [Aclarubicin] | -6.78 | -6.28
COC1=CC=C(C=N1)C/2=C/C3=C(C)N=C(N)N=C3N(C4CCC(CC4)OCCO)C2=O (stereo not given) | -7.88 | -7.18
CNC(=O)c1ccc(N2C(=S)N(c3cnc(C#N)c(C(F)(F)F)c3)C(=O)C23CCC3)cc1F [ARN-509] | -6.53 | -6.08
CC(C)CN(C[C@@H](O)[C@H](Cc1ccccc1)NC(=O)O[C@H]1CCOC1)[S+](=O)([O-])c1ccc(N)cc1 [Amprenavir] | -6.03 | -5.63
NC(CSC(c1ccccc1)(c1ccccc1)c1ccccc1)C(=O)O (stereo in doubt) [S-Trityl-L-cysteine] | -5.58 | -5.03
Cc1cnc(Nc2ccc(N3CCN(C)CC3)cc2)nc1Nc1cccc([S+](=O)([O-])NC(C)(C)C)c1 | -5.33 | -4.98
CCC(=C/[C@H](C)C/C=C/C(C)=C/[C@@H](C)C(=O)[C@@H](C)[C@H](O)[C@@H](C)C/C(C)=C/C(=O)O)/C=C/[C@@H]1OC(=O)C=C[C@@H]1C [Elactocin] | -7.66 | -7.06
COc1cc(Nc2ncc(F)c(Nc3ccc4c(n3)N(COP(=O)(O)O)C(=O)C(C)(C)O4)n2)cc(OC)c1OC [Fostamatinib disodium] | -5.33 | -5.93
CCN(CC)Cc1ccc2cc(COC(=O)Nc3ccc(C(=O)NO)cc3)ccc2c1 [Givinostat hydrochloride] | -5.38 | -6.03
COC1=C(OCCCN2CCOCC2)C=CC\3=C1/N=C(/NC(=O)C4=CN=C(N)N=C4)N5CC/N=C35 [BAY-80-6946] | -6.84 | -7.44
CC1(C)C(N(O)C(=O)Nc2ccc(Cl)cc2)N(c2ccc(Cl)cc2)C(=O)N1CC(=O)N/N=C/C=C/c1ccc([N+](=O)[O-])o1 (stereo not given) [Eeyarestatin I] | -5.08 | -5.03
CN[C@@H]1[C@H](O)[C@H](NC)[C@H]2O[C@@]3(O)C(=O)C[C@@H](C)O[C@H]3O[C@@H]2[C@H]1O [Spectinomycin hydrochloride] | -5.93 | -6.08
Nc1ncnc2c1c(-c1cnc3[nH]ccc3c1)nn2C1CCCC1 [PP-121] | -5.78 | -5.38
C[C@@]12O[C@@H](C[C@]1(O)CO)n1c3ccccc3c3c4c(c5c6ccccc6n2c5c31)CNC4=O [Lestaurtinib] | -6.33 | -5.48
Cc1ccc2nc(NCCN)c3ncc(C)n3c2c1 | -6.18 | -5.18
C[C@@]12OC(=O)[C@@]1(NC(=O)[C@@H]2CCCl)[C@@H](O)[C@H]\3CCC\C=C3 [Marizomib] | -7.68 | -7.48
Cc1cn(-c2cc(NC(=O)c3ccc(C)c(Nc4nccc(-c5cccnc5)n4)c3)cc(C(F)(F)F)c2)cn1 [Nilotinib] | -5.18 | -4.83
O=C(CCCCCCNC(=O)c1cnc(N(c2ccccc2)c2ccccc2)nc1)NO [ACY-1215] | -5.23 | -5.08
C=CC(=O)Nc1ccc2ncnc(Nc3ccc(OCc4cccc(F)c4)c(Cl)c3)c2c1 [AST-1306] | -5.28 | -8.33
COc1cc(NC(=O)c2ccc(-c3ccc(Cl)cc3)o2)cc(OC)c1 | -5.73 | -5.58
Cc1cc(C(=O)N2CCN(c3cccc(Cl)c3)CC2)n(-c2ccccc2)n1 [XRP-44X] | -6.38 | -5.48

SMILES | AC50 for growth inhibition (log10 M) (SB.mhdgc-1) | AC50 for growth inhibition (log10 M) (SB.msgc-1)
O=C(Nc1c[nH]nc1-c1nc2cc(CN3CCOCC3)ccc2[nH]1)NC1CC1 [AT-9283] | -6.18 | -5.38
CC(C)N[C@@H]1CCn2c(=O)[nH]c3cccc(c32)[C@H]1O [Zilpaterol] | -5.33 | -5.63
CCN(CC)CCOC1=CC=C(NC2=NC=C3\C=C(/C(=O)N(C)C3=N2)C4=C(Cl)C=CC=C4Cl)C=C1 | -5.18 | -5.98
O=C(Nc1cccc(Nc2ncc(Br)c(NCCc3cnc[nH]3)n2)c1)N1CCCC1 [BX-912] | -4.98 | -4.78
CC1(C)OC/2=C(\[C@H](NCC3=CC=CC=C3)[C@@H]1O)C(=O)C4=CC=CC=C4C2=O | -5.43 | -5.58
CCCCc1oc2ccc(NS(C)(=O)=O)cc2c1C(=O)c1ccc(OCCCN(CCCC)CCCC)cc1 [Dronedarone] | -4.73 | -4.63
COCCn1c2c([n+](Cc3cnccn3)c1C)C(=O)c1ccccc1C2=O [Sepantronium bromide] | -7.33 | -7.73
CN1\C(=C(O)/C2=C(C=C(Cl)S2)[S+]1([O-])=O)C(=O)NC3=NC=CC=C3 [Lornoxicam] | -5.88 | -5.43
O=C1\C=C/C=C2/[C@H]3CNC[C@H](C3)CN12 [Cytisine] | -6.03 | -4.83
Nc1n[nH]c2nnc(-c3c(-c4ccccc4)nn4ccccc34)cc12 | -5.03 | -5.23
COc1ccc(/C=C\c2cc(OC)c(OC)c(OC)c2)cc1O [Combretastatin A-4] | -8.68 | -5.23
CN[S+](=O)([O-])CCc1ccc2[nH]cc(C3CCN(C)CC3)c2c1 [Naratriptan hydrochloride] | -7.08 | -6.83
N/C(=N\C(=O)c1nc(Cl)c(N)nc1N)NCc1ccccc1 [Benzamil] | -5.73 | -5.53
C[S+](=O)([O-])N1CCN(Cc2cc3nc(-c4cccc5[nH]ncc45)nc(N4CCOCC4)c3s2)CC1 [GDC-0941] | -7.23 | -6.13
ClC1=CC=C2N/C3=N/C(=O)CN3CC2=C1Cl [anagrelide] | -4.73 | -4.78
CC(=O)O[C@@]12CO[C@@H]1C[C@H](O)[C@]3(C)[C@@H]2[C@H](OC(=O)C4=CC=CC=C4)[C@]5(O)C[C@H](O)/C(=C(/[C@@H](O)C3=O)C5(C)C)C [10-Deacetylbaccatin] | -5.83 | -5.38
C[C@]12CC[C@H]3[C@@H](C\C=C/4C[C@@H](O)CC[C@]34C)[C@@H]1CCC2=O [Dehydroepiandrosterone] | -5.78 | -4.78
OC1=CC=C(C=C1)\C2=C(O)\C(=O)C3=C(O2)C=C(O)C=C3O [Kaempferol] | -4.93 | -4.88
CN[C@H]1CCC2=CC(=C(OC)C(=C2C/3=C/C=C(OC)\C(=O)/C=C13)OC)OC [Demecolcine] | -8.13 | -8.83
O=C(/C=C/c1ccc(CN(CCO)CCc2c[nH]c3ccccc23)cc1)NO [Dacinostat] | -5.88 | -6.63
COc1cc2nccc(Oc3ccc(NC(=O)NC4CC4)c(Cl)c3)c2cc1C(N)=O [Lenvatinib] | -6.38 | -5.48
Cc1[nH]c(/C=C2\C(=O)Nc3ccccc32)c(C)c1CCC(=O)O [Orantinib] | -6.48 | -5.13
